Source: patent US12344597B2, “Alkoxy-substituted pyridinyl derivatives as LPA1 receptor antagonists and their use in the treatment of fibrosis” (IDORSIA PHARMACEUTICALS LTD, priority 2018, dated 2025)

Target: human LPA1 receptor (Homo sapiens (Human), UniProt Q92633)
Experiment: Beta-arrestin recruitment assay to determine IC50 values for human LPAR1
Format: cell-based
Details: antagonist mode, Tango EDG2-bla U2OS cells, LPA 18:1 500 nM final
How it was run: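 Antagonist IC50 = concentration giving 50% inhibition of maximal LPA response. Read-out is beta-lactamase reporter activity after arrestin-protease recruitment in U2OS cells bearing LPA1-TEV-Gal4-VP16 construct; cells pre-incubated 20 h, 37 °C, 5% CO2.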

Chain of human LPA1 receptor (Q92633 whole entry): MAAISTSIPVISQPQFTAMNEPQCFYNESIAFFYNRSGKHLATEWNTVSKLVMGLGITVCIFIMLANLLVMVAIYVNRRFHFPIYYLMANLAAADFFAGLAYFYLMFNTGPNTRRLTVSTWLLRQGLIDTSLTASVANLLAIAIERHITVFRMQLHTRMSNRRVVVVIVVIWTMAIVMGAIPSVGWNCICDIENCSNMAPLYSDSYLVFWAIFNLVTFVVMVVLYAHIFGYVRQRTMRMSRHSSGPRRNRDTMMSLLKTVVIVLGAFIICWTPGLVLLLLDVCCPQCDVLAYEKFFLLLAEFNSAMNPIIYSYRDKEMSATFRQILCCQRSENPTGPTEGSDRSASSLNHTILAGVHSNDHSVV

| SMILES | IC50 [nM] |
| --- | --- |
| Cc1ccc(NC(=O)C2(c3ccccc3C(C)C)CN(C(=O)CCc3cc(O)no3)C2)c(OC(F)F)n1 [Ex 12-29, N-(2-(difluoromethoxy)-6-methylpyridin-3-yl)-1-(3-(3-hydroxyisoxazol-5-yl)propanoyl)-3-(2-isopropylphenyl)azetidine-3-carboxamide] | 32 |
| Cc1ccc(NC(=O)C2(c3ccccc3C(C)C)CN(C(=O)CCOCCOCC(=O)O)C2)c(OC(F)F)n1 [Ex 12-121, 2-(2-(3-(3-((2-(difluoromethoxy)-6-methylpyridin-3-yl)carbamoyl)-3-(2-isopropylphenyl)azetidin-1-yl)-3-oxopropoxy)ethoxy)acetic acid] | 310 |
| Cc1ccc(NC(=O)C2(c3ncccc3C(C)C)CN(C(=O)NC3CC3)C2)c(OC(F)F)n1 [Ex 63, N1-cyclopropyl-N3-(2-(difluoromethoxy)-6-methylpyridin-3-yl)-3-(3-isopropylpyridin-2-yl)azetidine-1,3-dicarboxamide] | 8 |
| Cc1ccc(NC(=O)C2(c3ccccc3C(C)C)CN(Cc3cnn(C)c3)C2)c(OC(F)F)n1 [Ex 11-23, N-(2-(difluoromethoxy)-6-methylpyridin-3-yl)-3-(2-isopropylphenyl)-1-((1-methyl-1H-pyrazol-4-yl)methyl)azetidine-3-carboxamide] | 775 |
| Cc1ccc(NC(=O)C2(c3ccccc3C(C)C)CN(S(=O)(=O)NCCF)C2)c(OC(F)F)n1 [Ex 15-4, N-(2-(difluoromethoxy)-6-methylpyridin-3-yl)-1-(N-(2-fluoroethyl)sulfamoyl)-3-(2-isopropylphenyl)azetidine-3-carboxamide] | 15 |
| COC(=O)C(C)(C)CCNC(=O)N1CC(C(=O)Nc2ccc(C)nc2OC(F)F)(c2ccccc2C(C)C)C1 [Ex 17-18, methyl 4-(3-((2-(difluoromethoxy)-6-methylpyridin-3-yl)carbamoyl)-3-(2-isopropylphenyl)azetidine-1-carboxamido)-2,2-dimethylbutanoate] | 6 |
| COC(=O)C(C)(C)CN1CC(C(=O)Nc2ccc(C)nc2OC(F)F)(c2ccccc2C(C)C)C1 [Ex 11-24, methyl 3-(3-((2-(difluoromethoxy)-6-methylpyridin-3-yl)carbamoyl)-3-(2-isopropylphenyl)azetidin-1-yl)-2,2-dimethylpropanoate] | 280 |
| Cc1ccc(NC(=O)C2(c3ccccc3C(C)C)CN(C(=O)c3cc(O)no3)C2)c(OC(F)F)n1 [Ex 12-16, N-(2-(difluoromethoxy)-6-methylpyridin-3-yl)-1-(3-hydroxyisoxazole-5-carbonyl)-3-(2-isopropylphenyl)azetidine-3-carboxamide] | 9 |
| Cc1ccc(NC(=O)C2(c3ccccc3C(C)C)CN(CCCC(C)(C)[N+](=O)[O-])C2)c(OC(F)F)n1 [Ex 11-61, N-(2-(difluoromethoxy)-6-methylpyridin-3-yl)-3-(2-isopropylphenyl)-1-(4-methyl-4-nitropentyl)azetidine-3-carboxamide] | 39 |
| Cc1ccc(NC(=O)C2(c3ccccc3C(C)C)CN(CCCC(C)(C)O)C2)c(OC(F)F)n1 [Ex 11-66, N-(2-(difluoromethoxy)-6-methylpyridin-3-yl)-1-(4-hydroxy-4-methylpentyl)-3-(2-isopropylphenyl)azetidine-3-carboxamide] | 14 |
| Cc1ccc(NC(=O)C2(c3ccccc3C(C)C)CN(CCC(C)(C)O)C2)c(OC(F)F)n1 [Ex 11-9, N-(2-(difluoromethoxy)-6-methylpyridin-3-yl)-1-(3-hydroxy-3-methylbutyl)-3-(2-isopropylphenyl)azetidine-3-carboxamide] | 14 |
| Cc1ccc(NC(=O)C2(c3ccccc3C(C)C)CN(C(=O)NCC3(C(=O)O)CC3)C2)c(OC(F)F)n1 [Ex 17-15, 1-((3-((2-(difluoromethoxy)-6-methylpyridin-3-yl)carbamoyl)-3-(2-isopropylphenyl)azetidine-1-carboxamido)methyl)cyclopropane-1-carboxylic acid] | 16 |
| CC(=O)N(O)CC(=O)N1CC(C(=O)Nc2ccc(C)nc2OC(F)F)(c2ccccc2C(C)C)C1 [Ex 12-136, 1-(N-acetyl-N-hydroxyglycyl)-N-(2-(difluoromethoxy)-6-methylpyridin-3-yl)-3-(2-isopropylphenyl)azetidine-3-carboxamide] | 9 |
| Cc1ccc(NC(=O)C2(c3ccccc3C(C)C)CN(C(=O)NCC(C)(C)C(=O)O)C2)c(OC(F)F)n1 [Ex 17-17, 3-(3-((2-(difluoromethoxy)-6-methylpyridin-3-yl)carbamoyl)-3-(2-isopropylphenyl)azetidine-1-carboxamido)-2,2-dimethylpropanoic acid] | 12 |
| COC(=O)CC(C)(C)NC(=O)N1CC(C(=O)Nc2ccc(C)nc2OC(F)F)(c2ccccc2C(C)C)C1 [Ex 17-1, Methyl 3-(3-((2-(difluoromethoxy)-6-methylpyridin-3-yl)carbamoyl)-3-(2-isopropylphenyl)azetidine-1-carboxamido)-3-methylbutanoate] | 18 |
| Cc1ccc(NC(=O)C2(c3ccccc3C(C)C)CN(c3ccc(C(=O)O)cn3)C2)c(OC(F)F)n1 [Ex 18-2, 6-(3-((2-(difluoromethoxy)-6-methylpyridin-3-yl)carbamoyl)-3-(2-isopropylphenyl)azetidin-1-yl)nicotinic acid] | 6 |
| Cc1ccc(NC(=O)C2(c3ccccc3C(C)C)CN(Cc3ccc(C(=O)O)nc3)C2)c(OC(F)F)n1 [Ex 11-53, 5-((3-((2-(difluoromethoxy)-6-methylpyridin-3-yl)carbamoyl)-3-(2-isopropylphenyl)azetidin-1-yl)methyl)picolinic acid] | 115 |
| Cc1ccc(NC(=O)C2(c3ccccc3C(C)C)CCN(C(=O)OCC(=O)O)CC2)c(OC(F)F)n1 [Ex 14-3, 2-((4-((2-(difluoromethoxy)-6-methylpyridin-3-yl)carbamoyl)-4-(2-isopropylphenyl)piperidine-1-carbonyl)oxy)acetic acid] | 6 |
| COC(=O)C1(CN2CC(C(=O)Nc3ccc(C)nc3OC(F)F)(c3ccccc3C(C)C)C2)COC1 [Ex 11-90, methyl 3-((3-((2-(difluoromethoxy)-6-methylpyridin-3-yl)carbamoyl)-3-(2-isopropylphenyl)azetidin-1-yl)methyl)oxetane-3-carboxylate] | 45 |
| COC(=O)CCC(=O)N1CC(C(=O)Nc2ccc(C)nc2OC)(c2ccccc2C(C)C)C1 [Ex 12-61, Methyl 4-(3-(2-isopropylphenyl)-3-((2-methoxy-6-methylpyridin-3-yl)carbamoyl)azetidin-1-yl)-4-oxobutanoate] | 276 |
| COC(CC(=O)O)S(=O)(=O)N1CC(C(=O)Nc2ccc(C)nc2OC(F)F)(c2ccccc2C(C)C)C1 (centres unmarked) [Ex 13-27, 3-((3-((2-(difluoromethoxy)-6-methylpyridin-3-yl)carbamoyl)-3-(2-isopropylphenyl)azetidin-1-yl)sulfonyl)-3-methoxypropanoic acid] | 28 |
| COCCNS(=O)(=O)N1CC(C(=O)Nc2cccnc2OC)(c2ccccc2)C1 [Ex 86, 1-(N-(2-methoxyethyl)sulfamoyl)-N-(2-methoxypyridin-3-yl)-3-phenylazetidine-3-carboxamide, reference compound] | > 10000 |
| C=C(CC(=O)O)C(=O)N1CC(C(=O)Nc2ccc(C)nc2OC(F)F)(c2ccccc2C(C)C)C1 [Ex 12-93, 3-(3-((2-(difluoromethoxy)-6-methylpyridin-3-yl)carbamoyl)-3-(2-isopropylphenyl)azetidine-1-carbonyl)but-3-enoic acid] | 7 |
